The record followed here is patent publication US9233961B2, “Compounds and compositions for the treatment of parasitic diseases” (Novartis AG, priority 2013, dated 2016).

Assay [1] has as its system Leishmania donovani axenic amastigote parasites. Kind of assay: Leishmania donovani axenic amastigote proliferation assay. The following applies: read-out: L. donovani amastigotes EC50. Format: cell-based. The procedure, abridged:
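L. donovani axenic amastigotes (9600/well) in RPMI 1640 with 20% heat-inactivated FBS, folic acid, adenosine, glucose and 25 mM MES, pH 5.5, were incubated with compounds for 2 days at 37 °C, 5% CO2. Viability read by CellTiter-Glo luminescence; EC50 calculated.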

For assay [2], the system named is L. donovani HU3 strain in mouse peritoneal macrophages. Kind of assay: Assay for proliferation of Leishmania parasites in mouse peritoneal macrophages. Format: cell-based, Leishmania donovani. The following applies: Leishmania donovani, Peritoneal macrophage, read-out: L. donavani Macrophage EC50. The procedure, abridged:
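BALB/c peritoneal macrophages infected 24 h with L. donovani HU3 amastigotes taken from spleens of mice infected 9–11 weeks, then treated with compound for 5 days at 37° C, 5% CO2. Parasite nuclei counted by SYBR Green imaging after fixation; EC50 from percentage inhibition.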

The test system of assay [3] is Trypanosoma brucei Lister 427 strain bloodstream form. The experiment in a line: Assay for proliferation of kinetoplastid parasite Trypanosoma brucei. Type of assay: cell-based. The settings on record: read-out: T. brucei EC50. The text has this: Assay for Proliferation of Kinetoplastid Parasite Trypanosoma brucei.
The proliferation is quantified by the addition of Cell Titer Glo (Promega®) a luminescent cell viability assay that measures the number of viable cells in culture based on the quantification of cellular ATP amount, which is an indicator of metabolically active cells.
The following assay illustrates the invention without in any way limiting the scope of the invention. This parasite proliferation assay measures the increase in parasite growth using an assay that measures ATP activity, Cell Titer Glo®.
Trypanosoma brucei Lister 427 strain is grown in HMI-9 Trypanosome media for T. brucei bloodstream form. 30 μl of HMI-9 media is dispensed into 384 well assay plates. 200 nl of compounds of the invention (in DMSO), including anti-trypanosome controls (Pentamidine and suramin), are then transferred into the assay plates, as well as DMSO alone to serve as a negative control for inhibition. Then 25 μl of a suspension of T. brucei culture in HMI-9 media is dispensed into the assay plates. The final concentration of parasites in culture corresponds to 1.7% of 0.5 uM ATP activity with Cell Titer Glo® in HMI-9 media. The plates are placed in a 37° C. incubator for 48 hours in an atmospheric environment containing 5% CO2. 40 μl of Cell Titer Glo® is dispensed into the plates. The plates are then read for luminescence. The percentage inhibition of 50%, EC50, is calculated for each compound.

Where [4] appears, read: Lister 427 bloodstream form, 48 hours.

Like-named read-outs stand apart in the source and are kept apart here. Bounds are passed on as bounds.

Regarding `Cc1cnc2nc(-c3cc(NC(=O)c4ccnn4C)ccc3Cl)[nH]c2c1` [Compound 213], the EC50 in assay [1] (axenic amastigotes in vitro) was more than 25 µM; in assay [2], more than 48 µM; in assay [3] (setting [4]), more than 25000 nM.
The like results for `Cc1cnc2nc(-c3cc(NC(=O)c4cocn4)ccc3Cl)[nH]c2c1` [Compound 113] were, in that order, 15.3 µM, 26.4 µM and 1680 nM.
The like results for `Cc1cnc2nc(-c3cc(Nc4ccc(N(C)C)cn4)ccc3Cl)[nH]c2c1` [Compound 259] were, in that order, more than 25 µM, more than 50 µM and more than 25000 nM.
The like results for `N#Cc1cnc2nc(-c3cc(NC(=O)c4ccco4)ccc3Cl)[nH]c2c1` [Example 286, N-(4-chloro-3-{6-cyano-1H-imidazo[4,5-b]pyridin-2-yl}phenyl)furan-2-carboxamide] were, in that order, 0.61 µM, 7.1 µM and 164 nM.
Consider `NCc1cnc2nc(-c3cc(NC(=O)c4ccco4)ccc3Cl)[nH]c2c1` [Example 352, N-{3-[6-(aminomethyl)-1H-imidazo[4,5-b]pyridin-2-yl]-4-chlorophenyl}furan-2-carboxamide], for which the EC50 in assay [1] (axenic amastigotes in vitro) was determined as 0.253 µM; in assay [2] it was 49.5 µM; in assay [3] (setting [4]) it was 450 nM.
The like results for `CNc1ccc(-c2cnc3nc(-c4cc(NC(=O)c5cc(C)cs5)ccc4Cl)[nH]c3c2)cc1` [Example 345, N-(4-chloro-3-{6-[4-(methylamino)phenyl]-1H-imidazo[4,5-b]pyridin-2-yl}phenyl)-4-methylthiophene-2-carboxamide] were, in that order, 1.97 µM, 1.35 µM and 277 nM.
The like results for `O=C1Cc2cc(-c3cnc4nc(-c5cc(NC(=O)c6ccco6)ccc5Cl)[nH]c4c3)ccc2N1` [Compound 43] were, in that order, 0.73 µM, 6.9 µM and 21.6 nM.
On to `Cc1cnc2nc(-c3cc(NCc4ccco4)ccc3Cl)[nH]c2c1` [Example 266, 4-chloro-N-(furan-2-ylmethyl)-3-{6-methyl-1H-imidazo[4,5-b]pyridin-2-yl}aniline], for which the results for the concentration giving a half-maximal response (EC50) in assay [1], in assay [2] and in assay [3] (48 h) were more than 25 µM, more than 40.5 µM and more than 25000 nM, respectively.
In the case of `Cc1cnc2nc(-c3cc(NC(=O)c4ccc(C(C)(C)C)o4)ccc3Cl)[nH]c2c1` [Compound 190], the results for the EC50 in assay [1] (axenic amastigotes in vitro), in assay [2] and in assay [3] (setting [4]) were more than 24 µM, 20.2 µM and 5800 nM, respectively.
The like results for `COc1ccc(CC(=O)Nc2ccc(Cl)c(-c3nc4ncc(C)cc4[nH]3)c2)cc1` [Compound 156] were, in that order, more than 25 µM, 27.2 µM and more than 14200 nM.
As to `CS(=O)(=O)c1ccc(-c2cnc3nc(-c4cc(NC(=O)c5ccco5)ccc4Cl)[nH]c3c2)cc1` [Compound 46], the results for the EC50 in assay [1] (axenic amastigotes in vitro), in assay [2] and in assay [3] (setting [4]) were 0.5 µM, 1.33 µM and 37 nM, respectively.
The like results for `Cc1cnc2nc(-c3cc(NC(=O)Cc4onc5ccccc45)ccc3Cl)[nH]c2c1` [Compound 146] were, in that order, more than 25 µM, 21.7 µM and more than 14200 nM.
The like results for `Cc1cnc2nc(-c3cc(NS(=O)(=O)Cc4ccc(C(F)(F)F)cc4)ccc3Cl)[nH]c2c1` [Compound 252] were, in that order, more than 25 µM, more than 50 µM and more than 25000 nM.
The like results for `Cc1cnc2nc(-c3cc(NC(=O)c4noc(C)n4)ccc3Cl)[nH]c2c1` [Compound 161] were, in that order, more than 25 µM, more than 50 µM and 9600 nM.
`COc1ccc(-c2cnc3nc(-c4cc(NC(=O)c5ccco5)ccc4Cl)[nH]c3c2)cc1Cl` [Compound 48]: the half-maximal effective concentration (EC50) was 0.53 µM in assay [1] (axenic amastigotes in vitro), 8 µM in assay [2] and 76 nM in assay [3] (setting [4]).
With `Cc1cnc2nc(-c3cc(NC(=O)Cc4cccnc4)ccc3Cl)[nH]c2c1` [Compound 97], the concentration giving a half-maximal response (EC50) is more than 25 µM in assay [1] (axenic amastigotes in vitro), more than 50 µM in assay [2] and more than 18700 nM in assay [3] (setting [4]).
Consider `Cc1cnc2nc(-c3cc(NC(=O)C4CC(F)(F)C4)ccc3Cl)[nH]c2c1` [Compound 117], for which the EC50 in assay [1] (axenic amastigotes in vitro) was more than 25 µM; in assay [2], more than 50 µM; in assay [3] (setting [4]) it was more than 13500 nM.
As for `Cc1cnc2nc(-c3cc(NC(=O)C(c4ccccc4)C(C)C)ccc3Cl)[nH]c2c1` (stereo not drawn) [Compound 160], the half-maximal effective concentration (EC50) is more than 24.6 µM in assay [1] (axenic amastigotes in vitro), 20.3 µM in assay [2] and 12400 nM in assay [3] (setting [4]).
The like results for `Cc1cnc2nc(-c3cc(NC(=O)Cc4cccc(F)c4F)ccc3Cl)[nH]c2c1` [Example 78, N-(4-chloro-3-{6-methyl-1H-imidazo[4,5-b]pyridin-2-yl}phenyl)-2-(2,3-difluorophenyl)acetamide] were, in that order, more than 25 µM, more than 50 µM and more than 6600 nM.
`Cc1cnc2nc(-c3cc(Nc4ccc(C#N)cn4)ccc3Cl)[nH]c2c1` [Compound 263]: the concentration giving a half-maximal response (EC50) in assay [1] (axenic amastigotes in vitro) was more than 25 µM; in assay [2], more than 30.1 µM; in assay [3] (setting [4]), more than 25000 nM.
The like results for `Cc1cnc2nc(-c3cc(NC(=O)CCO)ccc3Cl)[nH]c2c1` [Compound 143] were, in that order, more than 25 µM, more than 50 µM and more than 14400 nM.
The like results for `N#Cc1ccc(-c2cnc3nc(-c4cc(NC(=O)c5ccco5)ccc4Cl)[nH]c3c2)cc1` [Compound 20] were, in that order, 0.239 µM, 1.78 µM and 54 nM.
The like results for `Cc1cnc2nc(-c3cc(NC(=O)c4cnc(C)cn4)ccc3Cl)[nH]c2c1` [Compound 178] were, in that order, 23.8 µM, more than 50 µM and 15200 nM.
For `Cc1cnc2nc(-c3cc(NS(=O)(=O)c4c(C)noc4C)ccc3Cl)[nH]c2c1` [Compound 253], the 50% effective concentration (EC50) in assay [1] (axenic amastigotes in vitro) was more than 24.9 µM; in assay [2] it was more than 28.4 µM; in assay [3] (setting [4]), more than 25000 nM.
The like results for `CC(C)N1CCN(c2ccc(-c3cnc4nc(-c5cc(NC(=O)c6ccco6)ccc5Cl)[nH]c4c3)cc2)CC1` [Compound 62] were, in that order, 19.2 µM, 9.4 µM and 520 nM.
Take `Cc1cnc2nc(-c3cc(NS(=O)(=O)c4cccs4)ccc3Cl)[nH]c2c1` [Compound 251]: the figures for the 50% effective concentration (EC50) in assay [1] (axenic amastigotes in vitro), in assay [2] and in assay [3] (setting [4]) were more than 25 µM, more than 50 µM and more than 18200 nM, respectively.
The like results for `COC(=O)Nc1ccc(Cl)c(-c2nc3ncc(C)cc3[nH]2)c1` [Compound 224] were, in that order, 18.7 µM, 11.1 µM and 2610 nM.
The like results for `Cc1cnc2nc(-c3cc(NC(=O)c4ccc(C(F)(F)F)cn4)ccc3Cl)[nH]c2c1` [Compound 115] were, in that order, 16.8 µM, 25.3 µM and 2600 nM.
The like results for `CNc1ccc(-c2cnc3nc(-c4cc(NC(=O)C5CCCC5)ccc4Cl)[nH]c3c2)cc1` [Compound 346] were, in that order, 2.53 µM, 0.47 µM and 560 nM.
On to `Cc1cnc2nc(-c3cc(NC(=O)c4ncc[nH]4)ccc3Cl)[nH]c2c1` [Compound 95], for which the half-maximal effective concentration (EC50) in assay [1] (axenic amastigotes in vitro) is more than 25 µM; in assay [2], more than 50 µM; in assay [3] (setting [4]) it was more than 14400 nM.
For `Cc1cnc2nc(-c3cc(NS(=O)(=O)CC(C)C)ccc3Cl)[nH]c2c1` [Compound 255], the EC50 in assay [1] (axenic amastigotes in vitro) was more than 25 µM; in assay [2], more than 50 µM; in assay [3] (setting [4]) it was more than 25000 nM.
The like results for `Cc1cnc2nc(-c3cc(NC(=O)c4cc(Cl)cc(Cl)c4)ccc3Cl)[nH]c2c1` [Compound 196] were, in that order, more than 25 µM, 11 µM and 11200 nM.
The like results for `Cc1cnc2nc(-c3cc(NC(=O)OCC(C)C)ccc3Cl)[nH]c2c1` [Compound 220] were, in that order, 7.4 µM, 17.3 µM and 1660 nM.
The like results for `O=C(Nc1ccc(Cl)c(-c2nc3ncc(-c4ccnc(F)c4)cc3[nH]2)c1)c1ccco1` [Compound 51] were, in that order, 0.175 µM, 0.56 µM and 19.3 nM.
Take `Cc1cnc2nc(-c3cc(NC(=O)c4cccc(N(C)C)c4)ccc3Cl)[nH]c2c1` [Compound 184]: the EC50 in assay [1] (axenic amastigotes in vitro) was more than 25 µM; in assay [2], more than 50 µM; in assay [3] (setting [4]) it was 8400 nM.
The like results for `CN1CCc2cc(-c3cnc4nc(-c5cc(NC(=O)c6ccco6)ccc5Cl)[nH]c4c3)ccc21` [Compound 59] were, in that order, 1.34 µM, 3.7 µM and 143 nM.
The like results for `Cc1cnc2nc(-c3cc(NC(=O)C4CCC4)ccc3Cl)[nH]c2c1` [Compound 118] were, in that order, 11.1 µM, 21.8 µM and 3200 nM.
